Measurements reported in ChEMBL document CHEMBL1201862, “PubChem BioAssay data set” (2004).
Calls of active or inactive are those of the source.

Key:
[1] = target: T1, Short transient receptor potential channel 4 (Mus musculus, UniProt Q9QUQ5); assay: calcium entry via TRPC4 opening agents – cell-based, HEK293 TRPC4/mu-opioid, Fluo-4 calcium, dose response (AID 434937); type: functional
T1 sequence (Q9QUQ5 whole entry): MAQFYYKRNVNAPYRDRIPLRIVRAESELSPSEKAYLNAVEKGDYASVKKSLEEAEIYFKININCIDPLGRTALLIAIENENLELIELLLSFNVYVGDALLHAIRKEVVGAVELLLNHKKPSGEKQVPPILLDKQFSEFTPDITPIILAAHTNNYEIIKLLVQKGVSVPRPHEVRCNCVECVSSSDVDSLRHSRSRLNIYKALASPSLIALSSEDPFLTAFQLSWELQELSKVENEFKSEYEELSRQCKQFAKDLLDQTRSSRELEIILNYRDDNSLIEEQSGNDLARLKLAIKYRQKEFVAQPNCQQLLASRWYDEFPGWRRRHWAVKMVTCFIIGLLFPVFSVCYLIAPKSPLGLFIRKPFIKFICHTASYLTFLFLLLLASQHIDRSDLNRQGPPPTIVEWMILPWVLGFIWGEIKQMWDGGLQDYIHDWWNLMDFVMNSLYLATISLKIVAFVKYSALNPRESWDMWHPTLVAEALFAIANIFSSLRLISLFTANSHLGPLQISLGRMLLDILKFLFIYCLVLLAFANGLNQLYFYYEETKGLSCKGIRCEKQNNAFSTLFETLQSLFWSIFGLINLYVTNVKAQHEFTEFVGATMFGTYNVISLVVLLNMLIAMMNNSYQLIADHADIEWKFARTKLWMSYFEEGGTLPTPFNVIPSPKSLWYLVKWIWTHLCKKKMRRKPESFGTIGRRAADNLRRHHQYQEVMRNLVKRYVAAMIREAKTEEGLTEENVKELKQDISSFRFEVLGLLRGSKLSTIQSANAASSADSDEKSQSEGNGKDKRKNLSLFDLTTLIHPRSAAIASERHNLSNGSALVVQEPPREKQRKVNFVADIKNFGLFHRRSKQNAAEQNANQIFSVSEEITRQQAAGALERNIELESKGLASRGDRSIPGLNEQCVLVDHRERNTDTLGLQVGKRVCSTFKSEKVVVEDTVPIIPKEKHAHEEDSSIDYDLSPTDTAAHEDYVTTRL

H4 = assay: Luminescence Cell-Based Dose Response HTS to Identify Activators of 5'UTR Stem-Loop Driven Prion Protein mRNA Translation in H4 Neuroglioblastoma Cells. [Related pubchem assays: 1829 (Project Summary), 1814 (Primary HTS)]; type: functional; conditions: Homo sapiens
[2] = target: T2, High affinity choline transporter 1 (Homo sapiens, UniProt Q9GZV3); assay: human choline transporter blockers, potency – cell-based, 5-point CRC, membrane potential dye, dose response (AID 504840); type: functional
T2 sequence (Q9GZV3 whole entry): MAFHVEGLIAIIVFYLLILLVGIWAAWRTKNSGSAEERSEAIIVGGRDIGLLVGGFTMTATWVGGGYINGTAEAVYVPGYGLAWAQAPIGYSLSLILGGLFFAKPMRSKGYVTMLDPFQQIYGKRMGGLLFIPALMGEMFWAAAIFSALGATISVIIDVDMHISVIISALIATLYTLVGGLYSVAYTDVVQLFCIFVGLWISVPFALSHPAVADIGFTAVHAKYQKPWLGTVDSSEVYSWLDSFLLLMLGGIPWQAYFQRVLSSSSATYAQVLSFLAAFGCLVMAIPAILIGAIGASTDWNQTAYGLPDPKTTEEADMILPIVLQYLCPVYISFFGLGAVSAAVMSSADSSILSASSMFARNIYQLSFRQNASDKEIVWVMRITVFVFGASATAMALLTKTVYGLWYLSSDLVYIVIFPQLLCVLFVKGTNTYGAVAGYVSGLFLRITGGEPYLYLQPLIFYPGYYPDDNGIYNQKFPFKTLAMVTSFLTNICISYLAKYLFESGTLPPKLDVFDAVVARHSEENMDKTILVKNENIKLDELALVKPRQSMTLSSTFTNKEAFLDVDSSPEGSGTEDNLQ

[3] = Luminescence Cell-Based Dose Confirmation HTS to Identify Activators of 5'UTR Stem-Loop Driven Alpha-Synuclein mRNA Translation in H4 Neuroglioblastoma Cells. [Related pubchem assays: 1829 (Project Summary), 1814 (Primary HTS)]; type: functional
[4] = Luminescence Cell-Based Dose Response HTS to Identify Activators of Luciferase Translation or Activity in H4 […] Cells. [Related pubchem assays: 1829 (Project Summary), 1814 (Primary HTS)]; type: functional
Streptococcus = assay: GAS UMAA2166 growth inhibition – luminescence, BacTiterGlo, counter-screen for streptokinase expression inhibitor project, dose response (AID 1915); type: functional, organism-based;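 further: potency for reduction of bacterial viability or growth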
Streptokinase A = target: T3, Streptokinase A (Streptococcus pyogenes serotype M1, UniProt P10520); assay: viability-normalized secreted streptokinase activity reduction – plasminogen activation absorbance, OD405, dose response (AID 1914); type: functional, Streptococcus pyogenes M1 GAS;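 further: secreted streptokinase activity via plasminogen activation per viability signal from cell pellet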
T3 sequence (P10520 whole entry): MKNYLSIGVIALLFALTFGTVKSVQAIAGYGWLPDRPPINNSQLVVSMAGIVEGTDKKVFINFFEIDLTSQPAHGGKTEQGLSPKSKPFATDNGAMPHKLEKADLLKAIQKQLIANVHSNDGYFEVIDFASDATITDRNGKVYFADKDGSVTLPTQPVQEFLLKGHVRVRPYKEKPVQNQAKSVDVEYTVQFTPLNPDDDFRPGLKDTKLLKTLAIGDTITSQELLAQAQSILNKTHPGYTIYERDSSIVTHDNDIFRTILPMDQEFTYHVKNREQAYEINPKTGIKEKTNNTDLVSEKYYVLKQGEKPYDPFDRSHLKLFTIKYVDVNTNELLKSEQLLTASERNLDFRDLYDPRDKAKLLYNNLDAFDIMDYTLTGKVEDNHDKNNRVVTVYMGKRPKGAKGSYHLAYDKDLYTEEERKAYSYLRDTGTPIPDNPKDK

[5] = system: Streptococcus sp. 'group A'; assay: Streptococcus pyogenes SK(-)GAS viability under kanamycin – luminescence, BacTiterGlo, confirmation, counter-screen for streptokinase expression inhibitor project, dose response (AID 1900); type: functional, organism-based
INS1 = assay: INS-1E survival protection against cytokine death – cell-based, luminescence, retest, dose response (AID 449756); type: functional; conditions: Rattus norvegicus;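 further: cell death triggered by IL-1 beta plus TNF-alpha plus IFN-gamma mixture; protective hits raise ATP signal compared with cytokine alone wells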
[6] = Trypanosoma cruzi growth suppression in host cells – NIH3T3 host cells, beta-gal luminescence, confirmation (AID 2044); type: functional, cell-based;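 further: intracellular parasites grown in NIH/3T3 mouse fibroblasts as host cells; luminescent beta-galactosidase reporter signal from transgenic T. cruzi replicating inside host cells; inhibitors lower the luminescence signal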
[7] = NIH3T3 cell viability loss – ATP luminescence, mouse fibroblasts, counter-screen, dose response (AID 2010); type: functional, cell-based;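 further: cells exposed to compound for about 90 hours before reading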
Fatty acid synthase = Fatty acid synthase (Homo sapiens, UniProt P49327); assay: inhibition of human FAS-TE enzyme activity – biochemical, kinetic fluorescence intensity, dose response (AID 624326); type: functional;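 further: rate of fluorescence rise from hydrolysis of a fluorogenic O-methyl fluorescein ester substrate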
Sequence of Fatty acid synthase (P49327 whole entry, the tested form may be a part): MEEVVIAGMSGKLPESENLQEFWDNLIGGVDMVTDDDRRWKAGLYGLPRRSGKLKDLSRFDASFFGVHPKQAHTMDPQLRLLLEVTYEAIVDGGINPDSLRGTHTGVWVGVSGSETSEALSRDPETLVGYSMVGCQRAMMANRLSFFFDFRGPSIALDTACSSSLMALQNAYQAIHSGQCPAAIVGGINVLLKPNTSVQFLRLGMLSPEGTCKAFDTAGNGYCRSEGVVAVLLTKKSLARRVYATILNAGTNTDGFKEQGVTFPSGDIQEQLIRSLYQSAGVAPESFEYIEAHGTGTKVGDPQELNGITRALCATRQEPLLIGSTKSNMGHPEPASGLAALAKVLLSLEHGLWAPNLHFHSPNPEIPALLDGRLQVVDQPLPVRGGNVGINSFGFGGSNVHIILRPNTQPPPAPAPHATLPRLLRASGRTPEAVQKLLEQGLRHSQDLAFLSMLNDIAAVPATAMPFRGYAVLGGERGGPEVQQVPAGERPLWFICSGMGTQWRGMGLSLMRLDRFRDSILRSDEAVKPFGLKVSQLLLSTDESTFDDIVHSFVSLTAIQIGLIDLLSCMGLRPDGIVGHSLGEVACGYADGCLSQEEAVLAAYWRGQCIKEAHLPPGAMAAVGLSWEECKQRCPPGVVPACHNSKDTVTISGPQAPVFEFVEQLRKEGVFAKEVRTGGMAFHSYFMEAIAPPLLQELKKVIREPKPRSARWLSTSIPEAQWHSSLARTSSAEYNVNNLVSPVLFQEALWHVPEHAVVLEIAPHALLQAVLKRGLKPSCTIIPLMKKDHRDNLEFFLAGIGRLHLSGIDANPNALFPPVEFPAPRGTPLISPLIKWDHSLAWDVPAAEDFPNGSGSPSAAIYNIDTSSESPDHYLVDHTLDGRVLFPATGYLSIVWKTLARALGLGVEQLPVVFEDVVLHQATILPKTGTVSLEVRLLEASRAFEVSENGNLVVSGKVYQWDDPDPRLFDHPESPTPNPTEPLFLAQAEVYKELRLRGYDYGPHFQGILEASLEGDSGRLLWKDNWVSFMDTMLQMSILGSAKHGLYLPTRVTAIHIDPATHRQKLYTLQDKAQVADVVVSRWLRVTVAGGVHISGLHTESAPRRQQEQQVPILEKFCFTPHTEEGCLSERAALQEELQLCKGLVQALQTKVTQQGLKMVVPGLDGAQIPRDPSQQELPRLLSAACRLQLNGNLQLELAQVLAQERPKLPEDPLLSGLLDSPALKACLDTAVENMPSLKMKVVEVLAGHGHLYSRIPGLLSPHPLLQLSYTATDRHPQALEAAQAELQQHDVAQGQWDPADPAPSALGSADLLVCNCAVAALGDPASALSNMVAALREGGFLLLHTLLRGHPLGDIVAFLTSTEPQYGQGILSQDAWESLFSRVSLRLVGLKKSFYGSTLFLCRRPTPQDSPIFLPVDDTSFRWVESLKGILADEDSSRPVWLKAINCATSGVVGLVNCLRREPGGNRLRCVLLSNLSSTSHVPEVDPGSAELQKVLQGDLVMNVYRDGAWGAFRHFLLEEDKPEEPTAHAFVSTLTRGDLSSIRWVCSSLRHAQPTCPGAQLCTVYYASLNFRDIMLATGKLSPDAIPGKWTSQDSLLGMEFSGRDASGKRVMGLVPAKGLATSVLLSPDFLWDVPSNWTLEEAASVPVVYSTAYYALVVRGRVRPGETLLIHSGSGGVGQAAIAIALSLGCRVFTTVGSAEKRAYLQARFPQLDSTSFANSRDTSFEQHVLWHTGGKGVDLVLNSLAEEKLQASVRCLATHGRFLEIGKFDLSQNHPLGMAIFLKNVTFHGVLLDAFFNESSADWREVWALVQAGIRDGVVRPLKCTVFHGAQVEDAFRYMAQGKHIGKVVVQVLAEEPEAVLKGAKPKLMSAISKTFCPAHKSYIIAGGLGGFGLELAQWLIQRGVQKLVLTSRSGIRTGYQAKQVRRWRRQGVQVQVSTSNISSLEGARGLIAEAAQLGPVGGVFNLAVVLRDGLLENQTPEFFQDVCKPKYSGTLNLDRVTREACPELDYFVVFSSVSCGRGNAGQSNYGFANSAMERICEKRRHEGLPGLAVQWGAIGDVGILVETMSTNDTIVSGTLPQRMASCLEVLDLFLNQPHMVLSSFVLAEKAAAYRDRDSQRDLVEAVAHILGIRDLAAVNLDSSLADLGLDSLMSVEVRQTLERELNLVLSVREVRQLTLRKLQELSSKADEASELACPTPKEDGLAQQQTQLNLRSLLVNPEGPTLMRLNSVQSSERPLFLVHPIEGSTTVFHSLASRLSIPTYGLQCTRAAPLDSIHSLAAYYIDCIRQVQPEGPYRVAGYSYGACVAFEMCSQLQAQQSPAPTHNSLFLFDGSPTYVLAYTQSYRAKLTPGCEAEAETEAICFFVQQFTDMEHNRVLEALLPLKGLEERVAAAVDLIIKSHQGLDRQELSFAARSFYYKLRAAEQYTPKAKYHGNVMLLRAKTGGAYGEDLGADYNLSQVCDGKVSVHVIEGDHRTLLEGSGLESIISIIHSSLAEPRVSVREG

[8] = blockers of HIV-1 ZM109 envelope-driven cell-cell fusion – HeLa effector, CEM target cells, luciferase, cherry-pick, dose response (AID 652058); type: functional, cell-based;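 further: luciferase signal from HIV-1 Env mediated cell-cell fusion of effector and target cells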
[9] = target: T4, Heat shock factor protein 1 (Mus musculus, UniProt P38532); assay: enhancement of HSF1-driven luciferase signal – cell-based, NIH3T3, luminescence, dose retest, confirmation (AID 435004); type: functional;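 further: stress induced by proteasome inhibitor MG132 added 30 min after compound; luciferase reporter driven by HSF1 response element in NIH3T3 cells; actives raise luminescence as potentiators of the MG132 stress response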
T4 sequence (P38532 whole entry): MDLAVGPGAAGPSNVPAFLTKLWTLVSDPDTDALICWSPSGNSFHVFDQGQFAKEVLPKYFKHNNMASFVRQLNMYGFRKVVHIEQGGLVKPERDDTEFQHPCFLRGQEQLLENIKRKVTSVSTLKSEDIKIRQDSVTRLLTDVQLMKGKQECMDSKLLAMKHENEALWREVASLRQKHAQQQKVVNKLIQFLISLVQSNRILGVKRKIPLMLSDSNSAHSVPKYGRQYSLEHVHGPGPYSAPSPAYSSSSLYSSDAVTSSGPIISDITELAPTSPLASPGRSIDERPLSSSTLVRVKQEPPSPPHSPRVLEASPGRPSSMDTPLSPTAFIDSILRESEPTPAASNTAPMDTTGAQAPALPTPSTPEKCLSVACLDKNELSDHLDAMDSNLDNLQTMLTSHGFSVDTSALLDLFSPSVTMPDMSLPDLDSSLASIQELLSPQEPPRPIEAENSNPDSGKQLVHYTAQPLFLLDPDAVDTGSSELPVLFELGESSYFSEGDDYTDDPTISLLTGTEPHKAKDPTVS

[10] = target: FAD-linked sulfhydryl oxidase ALR (Homo sapiens, UniProt P55789); assay: ALR-catalysed DTT oxidation blockers – biochemical, H2O2 detection, luminescence, cherry-pick, dose response (AID 493248)
Sequence of FAD-linked sulfhydryl oxidase ALR (P55789 whole entry): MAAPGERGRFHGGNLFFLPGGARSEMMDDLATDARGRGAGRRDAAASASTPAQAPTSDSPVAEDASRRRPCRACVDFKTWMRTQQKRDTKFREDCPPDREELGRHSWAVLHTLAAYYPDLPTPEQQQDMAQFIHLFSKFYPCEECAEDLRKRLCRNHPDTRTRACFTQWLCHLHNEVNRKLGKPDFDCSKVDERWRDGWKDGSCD

[11] = target: T5, Corticotropin-releasing factor receptor 2/Corticotropin-releasing factor-binding protein (Homo sapiens, UniProt P24387+Q13324); assay: activators of CRF receptor 2 with binding protein – uHTS hits, confirmation (AID 602473); type: functional; conditions: read-out: EC50_Mean
T5 sequence (Q13324 whole entry): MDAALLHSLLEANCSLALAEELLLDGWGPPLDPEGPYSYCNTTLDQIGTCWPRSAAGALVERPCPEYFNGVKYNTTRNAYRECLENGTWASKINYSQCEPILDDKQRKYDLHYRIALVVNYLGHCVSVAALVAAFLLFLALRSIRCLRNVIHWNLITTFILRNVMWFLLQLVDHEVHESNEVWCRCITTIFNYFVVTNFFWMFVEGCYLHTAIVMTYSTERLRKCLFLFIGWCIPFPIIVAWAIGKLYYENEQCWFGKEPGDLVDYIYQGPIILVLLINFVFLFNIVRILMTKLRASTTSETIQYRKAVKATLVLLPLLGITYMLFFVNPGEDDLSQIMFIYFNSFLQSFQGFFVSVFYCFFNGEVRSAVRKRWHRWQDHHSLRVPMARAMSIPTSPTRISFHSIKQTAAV
T5 sequence (P24387 whole entry): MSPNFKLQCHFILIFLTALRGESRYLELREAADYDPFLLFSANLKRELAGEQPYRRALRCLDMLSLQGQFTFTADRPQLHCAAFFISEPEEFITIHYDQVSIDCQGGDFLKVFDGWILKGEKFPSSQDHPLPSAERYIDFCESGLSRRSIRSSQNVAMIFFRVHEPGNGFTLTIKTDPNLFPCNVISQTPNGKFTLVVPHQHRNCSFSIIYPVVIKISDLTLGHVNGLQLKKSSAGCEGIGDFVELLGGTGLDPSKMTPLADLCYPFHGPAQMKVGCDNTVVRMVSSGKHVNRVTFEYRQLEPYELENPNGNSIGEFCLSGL

[12] = HIV-1 AD8 envelope cell-cell fusion blockers – cherry-pick, dose response (AID 652062); type: functional, cell-based;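 further: luciferase signal from cell-cell fusion driven by HIV-1 clade B AD8 Env; potency is for inhibitors of fusion seen as a drop in luminescence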
[13] = blockers of HIV-1 envelope-mediated cell-cell fusion – cherry-pick, dose response (AID 652057); type: functional, cell-based

Cc1noc(C)c1S(=O)(=O)N1CCC(C(=O)NCCCN2CC(C)CC(C)C2)CC1 (stereo unspecified)
EC50 [1]: 0.473 µM (active)

Cc1ccc2nc3c(O)n(CCc4c[nH]cn4)cnc-3c2c1
EC50 [1]: 1.88 µM (active)

Cc1ccc(Nc2nc(CSc3nnc(-c4ccc(F)cc4)n3C)cs2)cc1
EC50 (H4): 15 µM (active)
IC50 [2]: 15.8 µM (active)
EC50 [3]: 17.2 µM (active)
EC50 [4]: 16.9 µM (active)

O=C(NC(=S)NNC(=O)c1ccccc1[N+](=O)[O-])c1ccc(Br)cc1
EC50 (Streptococcus): 11.6 µM (active)
EC50 (Streptokinase A): > 150 µM (not active)
EC50 [1]: 11.9 µM (active)
EC50 [5]: 4.24 µM (active)

CCCc1cc(Nc2c(C)n(C)n(-c3ccccc3)c2=O)n2c(nc3ccccc32)c1C#N
IC50 [2]: 13.8 µM (active)

c1ccc2c(CN3CCCCCCC3)c[nH]c2c1
IC50 [2]: 12.6 µM (active)
AC50 (INS1): 4.22 µM (active)
EC50 [6]: 1.15 µM (active)
EC50 [7]: > 30 µM (not active)

CCn1c(N2CCN(CC(=O)Nc3cccc(C)c3C)CC2)nc2ccccc21
EC50 [1]: 2.11 µM (active)

CCN(CC(=O)Nc1cccc(OC)c1)c1ncnc2sc(C)c(C)c12
IC50 [2]: 7.24 µM (active)

O=C(c1cc2c(nc1O)CCCC2)N1CCc2c([nH]c3ccccc23)C1c1ccccc1F (stereo unspecified)
IC50 [2]: 19.1 µM (active)

CCCc1cc(C(=O)Nc2cccc([N+](=O)[O-])c2)cs1
IC50 (Fatty acid synthase): 8.66 µM (active)

O=C(CSc1nc2ccccc2[nH]1)c1ccc2c(c1)OCO2
IC50 [2]: 10 µM (active)

CCOc1ncccc1C(=O)NCC(c1ccccc1)N(C)C (stereo unspecified)
EC50 [1]: 1.19 µM (active)

CN(C)CCN(C(=O)c1cccc2ccccc12)c1nc2cc3c(cc2s1)OCO3
EC50 [1]: 5.96 µM (active)

C=C(C)CN(CC)c1nc(N)c2c(N)nc3c(c2c1C#N)CC(=O)N3C12CC3CC(CC(C3)C1)C2
AC50 [8]: 7.36 µM (active)
EC50 [9]: > 260 µM (inactive)
EC50 [6]: 1.69 µM (active)
EC50 [7]: > 60 µM (not active)

Sc1n[nH]c(-c2cc(Cl)cc(Cl)c2)n1
AC50 [10]: 1.72 µM (active)
IC50 [2]: 10.5 µM (active)

Cn1c2ccccc2c(=O)c2c(=O)n(C3CCCCC3)c(-c3ccco3)nc21
EC50 [11]: 8.22 µM (active)
EC50 [1]: 4.73 µM (active)

CC(C)N(C)CCOC(=O)C1COc2ccccc2O1 (stereo unspecified)
IC50 [2]: 13.8 µM (active)

COc1ccccc1Nc1ncnc2ccc(C)cc12
IC50 [2]: 13.8 µM (active)

Cc1ccc(C(=O)Nc2ccc(S(=O)(=O)NC3=NCCCCC3)cc2)c(C)c1
IC50 [2]: 10.8 µM (active)

CC(C)NC(=O)Nc1ccc2c(c1)C(=O)N([C@@H](C)CO)C[C@@H](C)[C@@H](CN(C)C(=O)CCC(F)(F)F)OCCCC[C@@H](C)O2
AC50 [8]: 0.518 µM (active)
AC50 [12]: 2.7 µM (active)
AC50 [13]: 969 nM (active)

CCCNC(=O)N1[C@H](C#N)[C@H](c2ccc(-c3ccc(C(=O)N(C)C)cc3)cc2)[C@@H]1CO
AC50 [8]: 32.8 µM (active)
AC50 [12]: 0.784 µM (active)

Cc1ccc(S(=O)(=O)N(C)C[C@@H]2Oc3cc(C4=CCCC4)ccc3S(=O)(=O)N([C@@H](C)CO)C[C@H]2C)cc1
AC50 [8]: 67.6 µM (active)
AC50 [12]: 41.6 µM (active)
AC50 [13]: 4070 nM (active)
